ChEMBL document CHEMBL1201862, “PubChem BioAssay data set” (2004)
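Assay format: 96-well plates, 48-hour exposure. GI50: concentration for 50% inhibition of growth.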 Activity calls are given as the source filed them. Cut-off read from the data, not from the text of the source: active = GI50 up to about 1.1 µM and inactive = higher.

Columns and labels:
Assay in all cases: inhibition of tumour cell growth, NCI panel, 48 h
[1] = system: BT-549
[2] = system: COLO 205
[3] = system: DU-145
[4] = system: HL-60
[5] = system: Hs-578T
[6] = system: MOLT-4
[7] = system: Malme-3M
[8] = system: NCI-H23
[9] = system: NCI-H522
[10] = system: OVCAR-4
[11] = system: OVCAR-5
[12] = system: RXF 393
[13] = system: SK-MEL-28
[14] = system: SK-OV-3
[15] = system: SN12C
[16] = system: SNB-75
[17] = system: T47D
[18] = system: DMS-114
[19] = system: M19-MEL

SMILES | GI50 [1] | GI50 [2] | GI50 [3] | GI50 [4] | GI50 [5] | GI50 [6] | GI50 [7] | GI50 [8] | GI50 [9] | GI50 [10] | GI50 [11] | GI50 [12] | GI50 [13] | GI50 [14] | GI50 [15] | GI50 [16] | GI50 [17] | GI50 [18] | GI50 [19]
O=C1CCCC2(c3ccccc3)Nc3ccccc3N12 (stereo not given) | > 100 µM (inactive) | > 100 µM (inactive) | > 100 µM (inactive) | 55.6 µM (inactive) | > 100 µM (inactive) | > 100 µM (inactive) | > 100 µM (inactive) | > 100 µM (inactive) | > 100 µM (inactive) | > 100 µM (inactive) | > 100 µM (inactive) | > 100 µM (inactive) | > 100 µM (inactive) | > 100 µM (inactive) | > 100 µM (inactive) | > 100 µM (inactive) | > 100 µM (inactive) |  | 
CC1=C(C)C(=O)OC(C(C)(O)C2(O)CC3OC34C3CC(O)C56OC5C=CC(=O)C6(C)C3CCC42C)C1 (stereo not given) | 0.914 µM (active) | 1.5 µM (inactive) | 3.4 µM (inactive) | 0.264 µM (active) | 1.77 µM (inactive) | 0.586 µM (active) | 0.762 µM (active) | 1.91 µM (inactive) | 0.361 µM (active) | 4.71 µM (inactive) | 2.39 µM (inactive) | 2.4 µM (inactive) | 1.41 µM (inactive) | 3.9 µM (inactive) | 2.82 µM (inactive) | 3.78 µM (inactive) | 2.99 µM (inactive) |  | 
COc1ccc(C[C@H]2COC(=O)[C@@H]2Cc2ccc(Br)cc2)cc1OC | 17.5 µM (inactive) | 21.2 µM (inactive) | 16.8 µM (inactive) | 20.4 µM (inactive) | 26.5 µM (inactive) | 13 µM (inactive) | 25.4 µM (inactive) | 9.06 µM (inactive) | 13.7 µM (inactive) | 19.7 µM (inactive) | 23.4 µM (inactive) | 20 µM (inactive) | 42.2 µM (inactive) | 22 µM (inactive) | 29.7 µM (inactive) | 23.3 µM (inactive) | 6.08 µM (inactive) |  | 
O=[N+]([O-])/C=C/c1ccc(Cl)cc1Cl |  | 21.2 µM (inactive) |  | 5.26 µM (inactive) |  | 15.8 µM (inactive) | 17.8 µM (inactive) | 19.2 µM (inactive) | 14.6 µM (inactive) | 19.8 µM (inactive) | 17.8 µM (inactive) |  | 14.9 µM (inactive) |  |  | 20.4 µM (inactive) |  | 17.8 µM (inactive) | 5.77 µM (inactive)
CN1N=C(Nc2ccccc2)Sc2c1cnn(-c1ccccc1)c2=O |  | > 100 µM (inactive) |  | 85.7 µM (inactive) |  | > 100 µM (inactive) | > 100 µM (inactive) | 66.1 µM (inactive) |  | 94.4 µM (inactive) |  | > 100 µM (inactive) |  | > 100 µM (inactive) | > 100 µM (inactive) |  |  | 30.4 µM (inactive) | > 100 µM (inactive)
CCN(CC)CCNc1ccc([N+](=O)[O-])c2nc3ccc(OC)cc3c(N)c12 | 1.4 µM (inactive) | 0.4 µM (active) | 1.65 µM (inactive) | 0.0826 µM (active) | 1.27 µM (inactive) | 0.301 µM (active) | 1.78 µM (inactive) | 1.64 µM (inactive) | 0.309 µM (active) | 1.22 µM (inactive) | 1.7 µM (inactive) | 1.16 µM (inactive) | 1.65 µM (inactive) | 1.89 µM (inactive) | 1.44 µM (inactive) | 1.77 µM (inactive) | 1.26 µM (inactive) |  | 
COc1cc(CC2c3cc(OC)c(OC)cc3CCN2C)c(Oc2cc3c(cc2OC)-c2c(O)c(OC)cc4c2C(C3)N(C)CC4)cc1OC (stereo not given) | 14.8 µM (inactive) | 11.4 µM (inactive) | 24.1 µM (inactive) | 4.01 µM (inactive) | 18.2 µM (inactive) | 19.4 µM (inactive) | 23.8 µM (inactive) | 22.2 µM (inactive) | 17.8 µM (inactive) | 28.3 µM (inactive) | 45.8 µM (inactive) | 2.11 µM (inactive) | 20.3 µM (inactive) | 41.1 µM (inactive) | 22.1 µM (inactive) | 14.9 µM (inactive) | 22.1 µM (inactive) |  | 
CN(C)CCNS(=O)(=O)N(C)C | > 100 µM (inactive) | > 100 µM (inactive) | > 100 µM (inactive) | > 100 µM (inactive) | > 100 µM (inactive) | > 100 µM (inactive) | > 100 µM (inactive) | > 100 µM (inactive) | > 100 µM (inactive) | > 100 µM (inactive) | > 100 µM (inactive) | > 100 µM (inactive) | > 100 µM (inactive) | > 100 µM (inactive) | > 100 µM (inactive) | > 100 µM (inactive) | > 100 µM (inactive) |  | 
Cc1ccccc1-n1c(C)nc(-c2ccccc2)cc1=O |  | > 100 µM (inactive) |  | > 100 µM (inactive) |  | > 100 µM (inactive) | > 100 µM (inactive) | > 100 µM (inactive) | > 100 µM (inactive) | > 100 µM (inactive) | > 100 µM (inactive) | > 100 µM (inactive) | > 100 µM (inactive) | > 100 µM (inactive) | > 100 µM (inactive) | 37.7 µM (inactive) |  | > 100 µM (inactive) | > 100 µM (inactive)
